A word on the melting point: it is the temperature, or range, at which the solid turns liquid. As usually defined, the boiling point is the temperature of boiling at a given pressure.

Conditions in the first series: not given
In turn, `OCC(O)COc1ccccc1Cl` (stereo not given) registered a melting point of 71.5 °C. On the same count and under the same terms, in the case of `COc1cc(OC)nc(Sc2cccc(Cl)c2C(=O)O)n1` it was 150 °C. Take `NC(=O)c1ccc(N)nc1`: the melting point was determined as 246 °C. Take `CCCCC(CC)CCC(=O)CC(C)C` (stereo not given): the boiling point was determined as 252 °C.

In turn, `O=C(c1ccccc1)c1ccncc1` came in with a boiling point of 315 °C and a melting point of 72 °C. With `c1ccc2oncc2c1`, the boiling point worked out at 215 °C. With `C[C@H]1C[C@@H](OC(=O)c2ccccc2)CC(C)(C)N1`, the melting point is 70.5 °C. `N#CCc1cccc([N+](=O)[O-])c1` registered a melting point of 63 °C. For the compound `CC/C=C\C/C=C\C/C=C\CCCCCCCC(=O)O`, the log10 vapour pressure (mmHg) is -6.27, the melting point is -16.5 °C and the ready biodegradability result is reported as “readily biodegradable”. In turn, `CC(=O)COC(C)=O` displayed a boiling point of 171 °C. For `Fc1ccccc1C(F)(F)F`, the boiling point turned out to be 114 °C and the log10 vapour pressure (mmHg) was determined as 1.58. `CC1CCC(C)C1` (stereo not given) showed a log10 biodegradation half-life (days) of 0.602. The compound `CCC(O)c1ccccc1` (stereo not given) displayed a boiling point of 219 °C. For the compound `CCC(C)COC(C)=O` (stereo not given), the boiling point was found to be 140 °C. Compound `CC(C)(Oc1ccccc1)C(=O)O` returned a melting point of 98.5 °C.

Consider `O=S(=O)(O)c1cc(S(=O)(=O)O)c2c(/N=N\c3ccc(S(=O)(=O)O)c4ccccc34)c(O)ccc2c1`, for which the ready biodegradability result is recorded as “not readily biodegradable”. `CC(C)COC(=O)C(C)C` showed a boiling point of 149 °C, a log10 vapour pressure (mmHg) of 0.636 and a melting point of -80.7 °C. Turning to `Cc1ncc(CO)c(N)n1`, the melting point is 198 °C. In the case of `C=CCOC=C`, the boiling point came out at 66 °C.

Compound `CSCC(C)C` yielded a boiling point of 112 °C. Regarding `CCc1c(Br)c(Br)c(Br)c(Br)c1Br`, the log10 Koc (L/kg) worked out at 4.92, the melting point amounted to 138 °C and the ready biodegradability result is on record as “not readily biodegradable”.

`Cc1ccc(Cl)c(Cl)c1` came in with a boiling point of 209 °C, a log10 vapour pressure (mmHg) of -0.502 and a melting point of -15.2 °C.

With `Nc1nc(N)c2[nH]cnc2n1`, the melting point turned out to be 302 °C. Take `Cc1ccnc(C)c1`: the boiling point was 158 °C, the log10 Henry constant (atm·m³/mol) is -5.17, the log10 vapour pressure (mmHg) is 0.5 and the melting point was -64 °C. The ready biodegradability result is “readily biodegradable”.

On to `Clc1cc2c(oc3c(Cl)c(Cl)c(Cl)c(Cl)c32)c(Cl)c1Cl`, for which the log10 Koa came out at 11.2, the log10 vapour pressure (mmHg) was -10.5 and the melting point was determined as 233 °C. Turning to `FC(F)(F)c1ccccc1`, the boiling point was 102 °C, the log10 vapour pressure (mmHg) stood at 1.59, the melting point is -29.1 °C and the ready biodegradability result is “not readily biodegradable”. The compound `CC12CCC(C(=O)C1=O)C2(C)C` (racemic) had a melting point of 199 °C. The compound `O=C(O)Cc1c(Cl)ccc(Cl)c1Cl` came in with a log10 Koc (L/kg) of 1.8 and a melting point of 161 °C.

`C=C1C(=O)O[C@@H]2C[C@@]3(C)CCC[C@H](C)C3=C[C@H]12` returned a boiling point of 275 °C and a melting point of 76 °C. Consider `CC1(OO)CCC2CC1C2(C)C` (stereo not given), for which the ready biodegradability result was “not readily biodegradable”.

`C=CCCC(=O)O` yielded a boiling point of 188 °C and a melting point of -22.5 °C.

On to `CCS(=O)CCSP(=O)(OC)OC` (stereo not given), for which the log10 Koc (L/kg) worked out at 1 and the log10 vapour pressure (mmHg) is -4.55. Take `CCCOC(=O)CC`: the boiling point came out at 122 °C, the log10 vapour pressure (mmHg) turned out to be 1.14 and the melting point was -75.9 °C. Regarding `Oc1ccc(-c2ccc(O)cc2)cc1`, the melting point amounted to 283 °C and the ready biodegradability entry is “not readily biodegradable”.

In the case of `CC(O)CC(C)O` (stereo not given), the boiling point was 199 °C and the ready biodegradability result is listed as “readily biodegradable”. `O=C(CCl)N1CCOCC1` returned a melting point of 37 °C. The compound `COc1cc(Cl)c(Cl)cc1O` registered a log10 vapour pressure (mmHg) of -2.35. `CC(O)CN(CC(C)O)CC(C)O` (stereo not given): the boiling point stood at 305 °C, the melting point amounted to 45 °C and the ready biodegradability result is on record as “not readily biodegradable”. Turning to `CCCCCCCCCCCCCCCCCCI`, the boiling point was 383 °C, the log10 vapour pressure (mmHg) is -5.72 and the melting point turned out to be 34 °C. Compound `CCOC(C)CC` (stereo not given) showed a boiling point of 81 °C.

The series is the same for the next values; noted with them: fish.
Take `CCCCC(CC)COC(=O)c1nc(Cl)c(Cl)c(N)c1Cl` (stereo not given): the log10 biotransformation half-life (days) was 0.45. For `Nc1ccccn1`, the log10 BCF was 1.06. `Clc1cc(Cl)c(Cl)c(-c2cc(Cl)c(Cl)c(Cl)c2Cl)c1` came in with a log10 biotransformation half-life (days) of 2.51.

Consider `CCCCOCCOP(=O)(OCCOCCCC)OCCOCCCC`, for which the log10 BCF is 0.76. `Brc1ccc(Oc2cc(Br)c(Br)c(Br)c2)cc1Br` displayed a log10 BCF of 6.43. In turn, `CCc1c(Br)c(Br)c(Br)c(Br)c1Br` had a log10 BCF of 2.52 and a log10 biotransformation half-life (days) of 0.02. `Clc1cc2c(oc3c(Cl)c(Cl)c(Cl)c(Cl)c32)c(Cl)c1Cl`: the log10 BCF is 3.45 and the log10 biotransformation half-life (days) turned out to be 0.9. The matching figures for `FC(F)(F)c1ccccc1`: 1.65 and -0.48. `COc1cc(Cl)c(Cl)cc1O` yielded a log10 BCF of 2.03 and a log10 biotransformation half-life (days) of -0.15. In turn, `CC(O)CN(CC(C)O)CC(C)O` (stereo not given) returned a log10 BCF of -0.24.

These data come from the OPERA property sets (Mansouri et al. 2018).
